Measurements published in patent US20220395522A1, “Methods of Use of Glucosamine for Increasing Nitrogen Retention” (TSI Bioproducts (Xuzhou) Co., Ltd., priority 2021, published 2022).
Like-named read-outs stand apart in the source and are kept apart here.

Assay type: in vivo, human
Conditions: for Fecal 3-Hydroxybutyrate / Fecal Acetate / Fecal Alanine / Fecal Butyrate / Fecal Cadaverine / Fecal Ethanol / Fecal Formate / Fecal Fumarate / Fecal Glucose / Fecal Glutamate / Fecal Glycerol / Fecal Glycine / Fecal Hypoxanthine / Fecal Isobutyrate / Fecal Isoleucine / Fecal Isovalerate / Fecal Lactate / Fecal Leucine / Fecal Lysine / Fecal Methionine / Fecal Methionine-sulfoxide / Fecal N-Acetylglucosamine / Fecal Nicotinate / Fecal Phenylacetate / Fecal Phenylalanine / Fecal Proline / Fecal Propionate / Fecal Putrescine / Fecal Ribose / Fecal Succinate / Fecal Threonine / Fecal Total AA / Fecal Total BCAAs / Fecal Total SCFA / Fecal Tyrosine / Fecal Uracil / Fecal Urocanate / Fecal Valerate / Fecal Valine / Fecal Xylose / Fecal p-Cresol: GLU condition, mean ± SD
Excerpt: Stool specimens were collected at four time points throughout the entire study protocol. The first two samples were collected before and after the first supplementation period while the final two samples were collected before and after the second supplementation period. All stool specimens were collected no more than 24-hours prior to that study participant being scheduled to complete their laboratory visit. All samples were immediately frozen after sample collection by the study participants. Participants were instructed to keep their samples in the freezer and to remove them at the latest possible time to minimize thawing during transfer to the laboratory for storage. Participants were provided with all materials necessary to collect, store, and transport the stool specimen including commode fecal collection system, fecal collection tubes with screw top lids and scoops attached, disposable gloves, freezer packs, specimen labels, and transfer containers. Participants were instructed to raise the toilet seat and place the stool collection frame on the back of the toilet bowl and then lower the toilet seat down and place collection bowl in frame. Participants then sat on the toilet and collected a stool sample into the container. Participants were instructed, if possible, to not urinate into the collection container. Participants then extracted a representative stool sample and filled each of the two provided sample collection tubes. Tubes were then secured, labeled, and frozen. All remaining stool was discarded into the toilet and flushed. Upon arrival in the laboratory each sample was immediately stored at −80° C.
A Fecal Metabolome Analysis was further conducted. Samples were manually homogenized with a sterile microspatula, and approximately 250 mg of fecal material was weighed and extracted using 1.5 mL of ice-cold Dulbecco's phosphate buffered saline (DPBS, 1×, pH 7.4). After extraction, samples were centrifuged, and the pellet was dried using a Labconco FreeZone 4.5 L Freeze Dry System to determine fecal dry weight. The supernatant was sequentially filtered through a 0.22 μm pore-size syringe filter (Millex-GP syringe filter, Millipore, Billerica, Mass.) to remove microbes followed by a 3 kDa ultracentrifugal filter (Amicon ultracentrifugal filter, Millipore, Billerica, Mass.) to remove any excess proteins. To 207 […], 23 […] (5 mM DSS-d6 (trimethylsilylpropanesulfonate) containing 0.2% NaN3 in 99.8% D20 was added to aid in quantification of metabolites. The pH of each sample was adjusted to 6.8±0.1 through addition of small amounts of NaOH or HCl. Samples were transferred to 3 mm Bruker NMR tubes (Bruker, Brillerica, Mass.) and stored at 4° C. until spectral acquisition. Nuclear magnetic resonance (NMR) spectra were acquired using a Bruker Avance 600 MHz NMR spectrometer equipped with a SampleJet autosampler (Bruker BioSpin, Germany) at 298 K using the NOESY 1H presaturation experiment (‘noesypr1d’). Data were acquired with a spectral width of 12 ppm, a 2.5-second acquisition time, a relaxation delay of 2.5 seconds, and a 100-millisecond mixing time using 32 transients and 8 dummy scans. Water saturation was applied during the relaxation delay and mixing time. Each spectrum was Fourier Transformed with zero filling to 128,000 data points, and the resulting Free Induction Decay (FID) was transformed with an exponential apodization function corresponding to a line-broadening of 0.5 Hz. Spectra were subsequently phased and baseline corrected using Chenomx NMRSuite Processor v8.3 (Chenomx Inc., Edmonton, Canada). Metabolites were identified and quantified based on the known concentration of the internal standard, using Chenomx NMRSuite Profiler v8.3 based on the established method of targeted profiling.

[1] = Post 21 days, 3 x 1,000 mg/day oral

In the case of Cl.N[C@H]1C(O)O[C@H](CO)[C@@H](O)[C@@H]1O (some centres unmarked) [GLU, glucosamine hydrochloride], the “Fecal 3-Hydroxybutyrate” value [1] is reported as 76 ± 35, the “Fecal Acetate” value [1] is reported as 43,680 ± 11,351 and the “Fecal Alanine” value [1] is reported as 2228 ± 721. For the same compound, the “Fecal Butyrate” value [1] was 13,538 ± 6558, the “Fecal Cadaverine” value [1] was 165 ± 56 and the “Fecal Ethanol” value [1] was 272 ± 187. The “Fecal Formate” value [1] was 403 ± 299, the “Fecal Fumarate” value [1] was 218 ± 115 and the “Fecal Glucose” value [1] was 3334 ± 2753. The “Fecal Glutamate” value [1] was 6773 ± 2223, the “Fecal Glycerol” value [1] was 6397 ± 3575 and the “Fecal Glycine” value [1] was 965 ± 399. For the same compound, the “Fecal Hypoxanthine” value [1] was 325 ± 143, the “Fecal Isobutyrate” value [1] was 1956 ± 1334 and the “Fecal Isoleucine” value [1] was 777 ± 388. For the same compound, the “Fecal Isovalerate” value [1] was 1712 ± 1304, the “Fecal Lactate” value [1] was 172 ± 396 and the “Fecal Leucine” value [1] was 1094 ± 496. The “Fecal Lysine” value [1] was 1454 ± 554, the “Fecal Methionine” value [1] was 352 ± 210 and the “Fecal Methionine-sulfoxide” value [1] was 202 ± 149. The “Fecal N-Acetylglucosamine” value [1] was 187 ± 152, the “Fecal Nicotinate” value [1] was 271 ± 106 and the “Fecal Phenylacetate” value [1] was 999 ± 786. The “Fecal Phenylalanine” value [1] was 544 ± 208, the “Fecal Proline” value [1] was 654 ± 326 and the “Fecal Propionate” value [1] was 12,663 ± 5766. The “Fecal Putrescine” value [1] was 115 ± 61, the “Fecal Ribose” value [1] was 1332 ± 533 and the “Fecal Succinate” value [1] was 758 ± 430. The “Fecal Threonine” value [1] was 659 ± 252, the “Fecal Total AA” value [1] was 17,208 ± 5190 and the “Fecal Total BCAAs” value [1] was 2873 ± 1312. The “Fecal Total SCFA” value [1] was 76,527 ± 25,492, the “Fecal Tyrosine” value [1] was 707 ± 273 and the “Fecal Uracil” value [1] was 684 ± 287. For the same compound, the “Fecal Urocanate” value [1] was 85 ± 48, the “Fecal Valerate” value [1] was 2574 ± 1519 and the “Fecal Valine” value [1] was 1003 ± 451. For the same compound, the “Fecal Xylose” value [1] was 702 ± 545, the “Fecal p-Cresol” value [1] was 551 ± 537 and the “Fecal 3-Hydroxybutyrate” value (Pre (baseline)) was 89 ± 62. For the same compound, the “Fecal Acetate” value (Pre (baseline)) was 40,675 ± 12,876, the “Fecal Alanine” value (Pre (baseline)) was 2667 ± 1134 and the “Fecal Butyrate” value (Pre (baseline)) was 11,370 ± 5781. For the same compound, the “Fecal Cadaverine” value (Pre (baseline)) was 170 ± 52, the “Fecal Ethanol” value (Pre (baseline)) was 169 ± 98 and the “Fecal Formate” value (Pre (baseline)) was 298 ± 166. The “Fecal Fumarate” value (Pre (baseline)) was 225 ± 151, the “Fecal Glucose” value (Pre (baseline)) was 2229 ± 2054 and the “Fecal Glutamate” value (Pre (baseline)) was 8882 ± 3831. For the same compound, the “Fecal Glycerol” value (Pre (baseline)) was 7458 ± 7347, the “Fecal Glycine” value (Pre (baseline)) was 1207 ± 514 and the “Fecal Hypoxanthine” value (Pre (baseline)) was 414 ± 190. For the same compound, the “Fecal Isobutyrate” value (Pre (baseline)) was 2097 ± 887, the “Fecal Isoleucine” value (Pre (baseline)) was 1029 ± 462 and the “Fecal Isovalerate” value (Pre (baseline)) was 1885 ± 886. The “Fecal Lactate” value (Pre (baseline)) was 60 ± 49, the “Fecal Leucine” value (Pre (baseline)) was 1422 ± 622 and the “Fecal Lysine” value (Pre (baseline)) was 1834 ± 815. For the same compound, the “Fecal Methionine” value (Pre (baseline)) was 424 ± 290, the “Fecal Methionine-sulfoxide” value (Pre (baseline)) was 258 ± 191 and the “Fecal N-Acetylglucosamine” value (Pre (baseline)) was 249 ± 147. For the same compound, the “Fecal Nicotinate” value (Pre (baseline)) was 327 ± 162, the “Fecal Phenylacetate” value (Pre (baseline)) was 1095 ± 511 and the “Fecal Phenylalanine” value (Pre (baseline)) was 629 ± 280. The “Fecal Proline” value (Pre (baseline)) was 687 ± 280, the “Fecal Propionate” value (Pre (baseline)) was 12,596 ± 4145 and the “Fecal Putrescine” value (Pre (baseline)) was 92 ± 59. The “Fecal Ribose” value (Pre (baseline)) was 1428 ± 760, the “Fecal Succinate” value (Pre (baseline)) was 635 ± 289 and the “Fecal Threonine” value (Pre (baseline)) was 831 ± 355. The “Fecal Total AA” value (Pre (baseline)) was 21,838 ± 8104, the “Fecal Total BCAAs” value (Pre (baseline)) was 3802 ± 1674 and the “Fecal Total SCFA” value (Pre (baseline)) was 71,612 ± 22,891. For the same compound, the “Fecal Tyrosine” value (Pre (baseline)) was 874 ± 394, the “Fecal Uracil” value (Pre (baseline)) was 922 ± 352 and the “Fecal Urocanate” value (Pre (baseline)) was 104 ± 57. The “Fecal Valerate” value (Pre (baseline)) was 2691 ± 1314, the “Fecal Valine” value (Pre (baseline)) was 1351 ± 610 and the “Fecal Xylose” value (Pre (baseline)) was 441 ± 420. For the same compound, the “Fecal p-Cresol” value (Pre (baseline)) was 597 ± 330, the “Fecal 3-Hydroxybutyrate, %” value (PLA vs. GLU, between-group) was 4.3% and the “Fecal Acetate, %” value (PLA vs. GLU, between-group) was 0.5%. The “Fecal Alanine, %” value (PLA vs. GLU, between-group) was −33.4%, the “Fecal Butyrate, %” value (PLA vs. GLU, between-group) was 14.3% and the “Fecal Cadaverine, %” value (PLA vs. GLU, between-group) was −29.1%. For the same compound, the “Fecal Ethanol, %” value (PLA vs. GLU, between-group) was 123.7%, the “Fecal Formate, %” value (PLA vs. GLU, between-group) was 30.7% and the “Fecal Fumarate, %” value (PLA vs. GLU, between-group) was −29.4%. The “Fecal Glucose, %” value (PLA vs. GLU, between-group) was 61.4%, the “Fecal Glutamate, %” value (PLA vs. GLU, between-group) was −30.7% and the “Fecal Glycerol, %” value (PLA vs. GLU, between-group) was −33.0%. For the same compound, the “Fecal Glycine, %” value (PLA vs. GLU, between-group) was −34.5%, the “Fecal Hypoxanthine, %” value (PLA vs. GLU, between-group) was −27.1% and the “Fecal Isobutyrate, %” value (PLA vs. GLU, between-group) was −38.6%. For the same compound, the “Fecal Isoleucine, %” value (PLA vs. GLU, between-group) was −40.5%, the “Fecal Isovalerate, %” value (PLA vs. GLU, between-group) was −18.9% and the “Fecal Lactate, %” value (PLA vs. GLU, between-group) was 107.7%. For the same compound, the “Fecal Leucine, %” value (PLA vs. GLU, between-group) was −28.4%, the “Fecal Lysine, %” value (PLA vs. GLU, between-group) was −32.1% and the “Fecal Methionine, %” value (PLA vs. GLU, between-group) was −23.7%. The “Fecal Methionine-sulfoxide, %” value (PLA vs. GLU, between-group) was 37.4%, the “Fecal N-Acetylglucosamine, %” value (PLA vs. GLU, between-group) was −34.9% and the “Fecal Nicotinate, %” value (PLA vs. GLU, between-group) was −6.6%. The “Fecal Phenylacetate, %” value (PLA vs. GLU, between-group) was −30.6%, the “Fecal Phenylalanine, %” value (PLA vs. GLU, between-group) was −15.6% and the “Fecal Proline, %” value (PLA vs. GLU, between-group) was −5.7%. The “Fecal Propionate, %” value (PLA vs. GLU, between-group) was −10.0%, the “Fecal Putrescine, %” value (PLA vs. GLU, between-group) was 5.0% and the “Fecal Ribose, %” value (PLA vs. GLU, between-group) was −37.4%. The “Fecal Succinate, %” value (PLA vs. GLU, between-group) was 8.0%, the “Fecal Threonine, %” value (PLA vs. GLU, between-group) was −31.8% and the “Fecal Total AA, %” value (PLA vs. GLU, between-group) was −31.0%. The “Fecal Total BCAAs, %” value (PLA vs. GLU, between-group) was −36.5%, the “Fecal Total SCFA, %” value (PLA vs. GLU, between-group) was −1.3% and the “Fecal Tyrosine, %” value (PLA vs. GLU, between-group) was −30.5%. For the same compound, the “Fecal Uracil, %” value (PLA vs. GLU, between-group) was −34.7%, the “Fecal Urocanate, %” value (PLA vs. GLU, between-group) was −38.7% and the “Fecal Valerate, %” value (PLA vs. GLU, between-group) was −36.0%. For the same compound, the “Fecal Valine, %” value (PLA vs. GLU, between-group) was −42.4%, the “Fecal Xylose, %” value (PLA vs. GLU, between-group) was 70.8% and the “Fecal p-Cresol, %” value (PLA vs. GLU, between-group) was −27.7%. For the same compound, the “Fecal glutamate, isoleucine, leucine and valine content” value (compared to baseline, p<0.05) was “significantly reduced”, the “Total amino acids, change” value (compared to baseline, p<0.05) was −21% and the “Total branched-chain amino acid, change” value (compared to baseline, p<0.05) was −24%. For the same compound, the “Fecal nucleotides (uracil)” value (compared to baseline, p=0.02) was “significantly reduced” and the “Effect on individual or total short-chain fatty acids” value (p>0.05) was “no effect”.
